Experiments:
[1] = Light stability in ethyl acetate (HPLC % area); format: physicochemical; conditions: for After 19 hrs % / Initial %: clear glass vial; for After 19 hrs %: 19 hours ordinary room lighting, HPLC % area; for Initial %: before light exposure, HPLC % area of total peak area
Procedure: (§1) The light stability of MK-7 was compared to compounds of the invention as hereinbefore described. Compounds were dissolved separately in ethyl acetate or MCT oil, transferred to glass vial (clear glass) and placed on the bench in a well lit laboratory (ordinary room lighting). The samples were analyzed after 19 hours of light exposure or more.
(§2) The samples were analyzed by HPLC using aHPLC_KB_001, with the HPLC conditions detailed below. • HPLC-DAD high pressure system: Agilent, LC system 1100 series • Analytical column: Supelcosil C-18, 4.6×250 mm, 5 μm • Column temperature: 40° C. • Flow rate: 1 mL/min • Injection volume: 8 μL • UV-detection: 270 nm/340 nm • Run time: 20 min • Eluent system: 50% Solvent C: MeOH/Water with 0.1% v/v acetic acid (95/5 v/v) 50% Solvent D: Isopropanol
(§3) The content of MK-7 and the MK-7 derivative in the samples have been quantified as % area of the total peak area in the chromatogram. […] Note that examples 2a and 2b show the synergistic behaviour discussed after table 2.

[2] = In vivo testing in rats: MK-7 in plasma after oral gavage; parameters: species or system male Sprague Dawley Rats
Procedure: Male Rats aged 6 to 8 weeks and weighing around 180 to 225 g. Animals were fasted overnight with free access to water. Animals were administered test substance by oral gavage with a dose of 100 μg/kg body weight (in recommended formulation and dose volume). Blood samples (150-200 μl) were collected at various time points during the next 48 hours post dose. To determine the bioavailability of different formulations containing MK-7 in male e Sprague Dawley Rats through gavage. Formulations were both dissolved in sunflower oil. Approximately 0.4 ml/animal (depending on the weight of the animal) via oral gavage (100 μg/kg body weight). There were 6 animals per formulation. Blood samples were collected from the tail vein of each animal and transferred into lithium heparin tubes at 2 and 12 hours post dose. Quantification of analyte in plasma was determined by LC-MS-MS analysis: Analyte: MK-7 in plasma. The data are mean of four measurements (low and high values are not included).

[3] = Calcium salt composition: recovery from tablet after direct compression; format: physicochemical; conditions: for compatibility with calcium in the formulation process: formulated together with calcium salts; for recovered from the tablet after formulation: magnesium stearate, MCC, compared to amount pre-formulation
Procedure: We combined 47 mg of a 0.19 wt % formulation of the MK-7 derivative of Example 16 (diacetate) in microcrystalline cellulose MCC with 645 mg of 90 wt % calcium carbonate, […] of magnesium stearate and 745 mg of MCC and formulated tablets of this blend using direct compression.
After formulation we recovered the MK-7 derivative from the tablet. We recovered 88 wt % of the derivative from the tablet.
The same experiment was repeated using identical conditions other than the use of MK-7 rather than the MK-7 derivative. We recovered 77.6 wt % of MK7 from the tablet compared to the amount pre-formulation. We show therefore that the loss of MK7 during tableting process is 23%.

[4] = Light stability in MCT oil (HPLC % area); format: physicochemical; conditions: 24 hours light exposure
Procedure: as §1, §2, §3

[5] = tablet with calcium carbonate, direct compression

After 19 hrs % ([1]; in ethyl acetate) | Initial % ([1]; in ethyl acetate) | serum level 12 hours after administration compared with MK-7 [2] | reduction in the amount present after tabletting ([3]; directly compressed with excipients such as calcium or magnesium) | loss during tableting process [3, 5] | degradation after 24 hours of light exposure [4] | light degradation in ethyl acetate compared with MCT oil ([1]; in ethyl acetate) | degradation after 19 hours of light exposure ([1]; in solution (ethyl acetate, Table 1), 19 hours light exposure) | Structure (SMILES) | compatibility with calcium in the formulation process [3] | recovered from the tablet after formulation [3, 5] | compatibility with calcium in the formulation process ([3]; listed as MK7)
95.4% | 98.5% | – | – | – | – | – | – | CC(C)=CCC/C(C)=C/CC/C(C)=C/CC/C(C)=C/CC/C(C)=C/CC/C(C)=C/CC/C(C)=C/Cc1c(C)c(OC(=O)c2ccccc2)c2ccccc2c1OC(=O)c1ccccc1 [Example 1, 2-((2E,6E,10E,14E,18E,22E)-3,7,11,15,19,23,27-heptamethyl-octacosa-2,6,10,14,18,22,26-heptaen-1-yl)-3-methylnaphthalene-1,4-diyl dibenzoate] | – | – | –
– | – | the same | – | – | – | – | – | CCC(=O)Oc1c(C)c(C/C=C(\C)CC/C=C(\C)CC/C=C(\C)CC/C=C(\C)CC/C=C(\C)CC/C=C(\C)CCC=C(C)C)c(OC(=O)CC)c2ccccc12 [Example 7, 2-((2E,6E,10E,14E,18E,22E)-3,7,11,15,19,23,27-heptamethyloctacosa-2,6,10,14,18,22,26-heptaen-1-yl)-3-methylnaphthalene-1,4-diyl dipropionate] | – | – | –
53.7% | 99.4% | – | up to 30% | 23% | approximately 70% | degrades even more rapidly | approximately 50% | CC(C)=CCC/C(C)=C/CC/C(C)=C/CC/C(C)=C/CC/C(C)=C/CC/C(C)=C/CC/C(C)=C/CC1=C(C)C(=O)c2ccccc2C1=O [MK-7, 2-((2E,6E,10E,14E,18E,22E)-3,7,11,15,19,23,27-Heptamethyloctacosa-2,6,10,14,18,22,26-heptaen-1-yl)-3-methylnaphthalene-1,4-dione] | degrades rapidly | 77.6 wt % | degrades in the formulation process together with calcium

Structure (SMILES) | After 19 hrs % ([1]; in ethyl acetate) | Initial % ([1]; in ethyl acetate) | serum level 12 hours after administration compared with MK-7 [2] | reduction in the amount present after tabletting ([3]; directly compressed with excipients such as calcium or magnesium) | loss during tableting process [3, 5] | degradation after 24 hours of light exposure [4] | light degradation in ethyl acetate compared with MCT oil ([1]; in ethyl acetate) | degradation after 19 hours of light exposure ([1]; in solution (ethyl acetate, Table 1), 19 hours light exposure) | compatibility with calcium in the formulation process [3] | recovered from the tablet after formulation [3, 5] | compatibility with calcium in the formulation process ([3]; listed as MK7)
CC(=O)Oc1c(C)c(C/C=C(\C)CC/C=C(\C)CC/C=C(\C)CC/C=C(\C)CC/C=C(\C)CC/C=C(\C)CCC=C(C)C)c(OC(C)=O)c2ccccc12 [Example 16] | 92.7% | 93.1% | – | – | – | – | – | – | more compatible with calcium than MK7 | 88 wt % | –

Source: patent US20160184254A1, “COMPOSITIONS COMPRISING VITAMIN K DERIVATIVES AND SALTS” (KAPPA BIOSCIENCE AS, priority 2013, published 2016)
